Measurements taken from US8592600B2, “Solid state forms of racemic ilaprazole” (Il Yang Pharmaceutical Company, Ltd., priority 2006, dated 2013).
Entries after “also recorded” stand apart in the source; their conditions may differ.

Tests used:
[1] = Solubility of racemic ilaprazole forms in various ethanol solutions (100-50% ethanol) with various apparent pHs, 1 hour; format: physicochemical; settings: comparison between Forms A, B, F
Experimental: The solubility of racemic ilaprazole, Forms A, B, and F, were analyzed by exposing them to various ethanol solutions having various pHs for 1 hour. Duplicate analysis was performed for each sample on a second day. The solubility in 100% ethanol (with no pH adjustment) is shown in the first column. Various other aqueous solutions (87.5%, 75%, 62.5%, and 50% ethanol) with varying apparent pHs (7, 8, 9, 10, and 11) were also evaluated. All of the values below are the average of two duplicate preparations analyzed on different days.

[2] = Bioavailability study of ilaprazole from 40-mg delayed-release tablets, plasma pharmacokinetics; format: in vivo, human; settings: for AUC lower than Form A, point estimate / Cmax lower than Form A, point estimate: ANOVA point estimate, relative to 40-mg tablet as Form A; for half-life, relative: humans, Forms A, B, F compared; for mean AUC∞ lower than value observed for Form A / mean Cmax lower than value observed for Form A: mean values; for mean AUC∞ lower than value observed for Form A / mean Cmax lower than value observed for Form A / mean AUC, rank among forms / mean Cmax, rank among forms / mean apparent oral clearance, rank among forms / mean apparent volume of distribution, rank among forms: single 40 mg oral dose; for t1/2z, harmonic mean / tlag, Mean / tmax, Mean: single 5 mg oral dose (table title; text: 40 mg delayed-release tablet); for lower bound of 90% confidence interval for ratio of central values, AUC / lower bound of 90% confidence interval for ratio of central values, AUC∞ / lower bound of 90% confidence interval for ratio of central values, Cmax: relative to Form A (Regimen A), bioequivalence limit 0.80; for AUCt, Point Estimate (ratio of central values) vs. Regimen A / AUC∞, Point Estimate (ratio of central values) vs. Regimen A / Cmax, Point Estimate (ratio of central values) vs. Regimen A: relative to Regimen A (Form A), Regimen B = Form B, Regimen C = Form F, single 40-mg delayed-release tablet
Excerpt: The bioavailability of ilaprazole from delayed-release tablets containing racemic ilaprazole, Form A, F, and B. This study were to assessed the bioavailability of ilaprazole from ilaprazole 40-mg delayed-release tablets manufactured as described in Example 8.
The subjects were randomly assigned in equal numbers to one of three sequence groups (Table 32).
Subjects received all regimens in a crossover fashion, according to the sequence group to which they were randomized. For each period, confinement began on Day 1 and ended on Day 2 after all procedures had been completed. There was a washout interval of at least 5 days between the doses of each period. Each subject received 3 doses of racemic ilaprazole 40 mg, each dose administered with 240 mL of water. On Day 1 of each period, subjects received the regimen to which they had been assigned at approximately 0800 hours. Subjects were fasted for 10 hours prior to dosing and remained fasted until 4 hours postdose when a standardized lunch was served.
Ilaprazole, ilaprazole sulfide and ilaprazole sulfone plasma concentrations were determined from 3 mL blood samples collected starting on Day 1 at 0 hour (predose), and 0.5, 1, 1.5, 2, 3, 4, 5, 6, 8, 10, 12, 14, 16, 20, 24, 28 and 32 hours postdose in each period. Plasma concentrations of ilaprazole were determined using a validated LC-MS/MS method at PPD (Middleton, Wis.). The lower limit of quantitation (LLOQ) for ilaprazole and its metabolites was 5.00 ng/mL with a 0.100 mL aliquot of plasma.
Pharmacokinetic parameters for ilaprazole were estimated using standard noncompartmental methods with WinNonlin Professional Version 4.1 (Pharsight Co., Mountain View, Calif.).
Pharmacokinetic endpoints included time to reach the first quantifiable concentration (tlag), time to reach the peak concentration (tmax), the peak plasma concentration (Cmax), area under the plasma concentration versus time curve (AUC) from time zero to the last quantifiable concentration (AUCt) and to infinity (AUC∞), terminal-phase elimination half-life (t1/2z), apparent oral clearance (CL/F) and apparent volume of distribution (Vz/F).
For ilaprazole tlag, tmax, and the natural logarithms of Cmax and AUCs, an analyses of variance (ANOVA) model was fitted that included fixed effects of sequence, period, and crystal form as well as a random effect of subject nested within sequence. Pairwise comparisons between racemic ilaprazole, Forms B or F and Form A, were conducted. Ninety percent confidence intervals for relative bioavailability between regimens were computed.

[3] = Dynamic Vapor Sorption/Desorption (DVS); format: physicochemical; settings: for weight loss at 5% RH / weight loss from 95 to 5% RH / weight gain from 5 to 95% RH: DVS isotherm; for weight loss from 95 to 5% RH: desorption; for weight gain from 5 to 95% RH: sorption
Experimental: Dynamic Vapor Sorption/Desorption (DVS): Data were collected on a VTI SGA-100 moisture balance system. For sorption isotherms, a sorption range of 5 to 95% relative humidity (RH) and a desorption range of 95 to 5% RH in 10% RH increments were used for analysis. The samples were not dried prior to analysis. Equilibrium criteria used for analysis were less than 0.0100% weight change in 5 minutes with a maximum equilibration time of 3 hours if the weight criterion was not met. Data were not corrected for the initial moisture content of the samples.

[4] = Dissolution rate of delayed release tablets, 40 mg (USP <711>, Delayed Release Method A); format: physicochemical; settings: 40 mg tablet, dissolution buffer
Experimental: Delayed release tablets containing 40 mg racemic ilaprazole, Form A, B, or F, were prepared and the dissolution rates of the tablets studied. The tablets were identical, with the exception of the crystalline form of ilaprazole. The qualitative and quantitative compositions of racemic ilaprazole delayed release tablets, 40 mg (inclusive of the compositions made using Forms A, B, and F) are described in Table 30. The dissolution rate procedure was modified to be consistent with USP <711>, Delayed Release Method A and to change the UV detection wavelength in the acid stage of the test. For the acid stage, a wavelength of 340 nm was used, and for the buffer stage, a wavelength of 306 nm was used. The desired dissolution profile was Q=70% in 60 minutes.

[5] = Solid state stability of the crystalline forms; format: physicochemical
[6] = test system: gastric acid; assay: Phase 1 and Phase 2 clinical studies conducted with ilaprazole; format: in vivo, human
[7] = plasma ilaprazole, healthy adult subjects, fasted
[8] = plasma ilaprazole, healthy adult subjects, single 40 mg oral dose (table title; text: 40 mg delayed-release tablet), fasted
[9] = human, plasma, po, 40 mg, plasma ilaprazole, healthy adult subjects, single 40 mg oral dose (table title; text: 40 mg delayed-release tablet), fasted

Structure (SMILES)	relative solubility in aqueous solutions/solvents [1]	AUC lower than Form A, point estimate [2]	Cmax lower than Form A, point estimate [2]	half-life, relative [2]	mean AUC∞ lower than value observed for Form A [2] [%]	mean Cmax lower than value observed for Form A [2]	t1/2z, harmonic mean [2, 7]	tlag, Mean [2, 7] [h]	tmax, Mean [2, 7] [h]	AUCt, Mean [2, 8] [ng·h/mL]	AUC∞, Mean [2, 8] [ng·h/mL]	CL/F, Mean [2, 8] [L/h]	Cmax, Mean [2, 8] [ng/mL]	t1/2z, arithmetic mean [2, 8] [h]	lower bound of 90% confidence interval for ratio of central values, AUC [2]	lower bound of 90% confidence interval for ratio of central values, AUC∞ [2]	hygroscopicity [3]	weight loss at 5% RH [3] [%]	weight loss from 95 to 5% RH [3] [%]	weight gain from 5 to 95% RH [3] [%]	further results
COc1ccnc(C[S+]([O-])c2nc3cc(-n4cccc4)ccc3[nH]2)c1C (racemic) [Form F, 2[[(4-methoxy-3-methyl-2-pyridinyl)-methyl]sulfinyl]-5-(1H-pyrrol-1-yl) 1H-Benzimidazole]	A<F<B; also recorded: more soluble in aqueous solvents than Form A	15-17%	approximately 15%	longest half-life	~14	approximately 15%	(7.29) h	1.18	4.01	4256.66	4672.37	11.29	554.18	9.66	< 0.80	< 0.80	slightly hygroscopic	0.04	1.33	1.05	lower bound of 90% confidence interval for ratio of central values, Cmax [2]: < 0.80; AUCt, Point Estimate (ratio of central values) vs. Regimen A [2]: 0.8288; AUC∞, Point Estimate (ratio of central values) vs. Regimen A [2]: 0.8456; Cmax, Point Estimate (ratio of central values) vs. Regimen A [2]: 0.8456
COc1ccnc(C[S+]([O-])c2nc3cc(-n4cccc4)ccc3[nH]2)c1C (racemic) [Form B, 2[[(4-methoxy-3-methyl-2-pyridinyl)-methyl]sulfinyl]-5-(1H-pyrrol-1-yl) 1H-Benzimidazole]	A<F<B; also recorded: more soluble in aqueous solvents than Form A	~24%	approximately 17%	greater half-life than Form A	~25	approximately 20%	(7.76) h	1.22	3.50	3812.50	4087.99	11.70	522.51	9.48	< 0.80	< 0.80	not hygroscopic	0.03	0.00	0.04	dissolution of delayed release tablet, relative [4]: relatively slower dissolution profile; also recorded: slower to wet and dissolve in the dissolution buffer than Form A and Form F; lower bound of 90% confidence interval for ratio of central values, Cmax [2]: < 0.80; AUCt, Point Estimate (ratio of central values) vs. Regimen A [2]: 0.7630; AUC∞, Point Estimate (ratio of central values) vs. Regimen A [2]: 0.7609; Cmax, Point Estimate (ratio of central values) vs. Regimen A [2]: 0.8292; mean AUC, rank among forms [2]: lowest; mean Cmax, rank among forms [2]: lowest; mean apparent oral clearance, rank among forms [2]: highest; mean apparent volume of distribution, rank among forms [2]: highest; long term stability or shelf life [5]: good long term stability or shelf life
COc1ccnc(C[S+]([O-])c2nc3cc(-n4cccc4)ccc3[nH]2)c1C (stereo not shown) [ilaprazole, 2[[(4-methoxy-3-methyl-2-pyridinyl)-methyl]sulfinyl]-5-(1H-pyrrol-1-yl) 1H-Benzimidazole]																					suppression of gastric acid ([6]; Phase 1 clinical studies, at the doses studied): suppression of gastric acid occurs over a 24-hour period; healing of acid-related gastric and duodenal ulcers ([6]; Phase 2 clinical studies): promoted rapid healing; symptomatic relief ([6]; Phase 2 clinical studies, patients with gastric-acid related disorders): provided symptomatic relief
COc1ccnc(C[S+]([O-])c2nc3cc(-n4cccc4)ccc3[nH]2)c1C (racemic) [Form I, 2[[(4-methoxy-3-methyl-2-pyridinyl)-methyl]sulfinyl]-5-(1H-pyrrol-1-yl) 1H-Benzimidazole]																		0.1	4.2	4.2	
COc1ccnc(C[S+]([O-])c2nc3cc(-n4cccc4)ccc3[nH]2)c1C (racemic) [Form A, 2[[(4-methoxy-3-methyl-2-pyridinyl)-methyl]sulfinyl]-5-(1H-pyrrol-1-yl) 1H-Benzimidazole]	A<F<B; also recorded: least soluble in aqueous solutions						(6.95) h	1.16				9.34		8.89			not hygroscopic	0.06	0.13	0.10	AUC(0-inf) [2, 9]: 5450 ng·h/mL; AUC(0-t) [2, 9]: 5070 ng·h/mL; Cmax [2, 9]: 652 ng/mL; Tmax [2, 9]: 4.14 h; Vd/F ([2]; human, plasma, po, 40 mg, plasma ilaprazole, healthy adult subjects, single 40 mg oral dose (table title; text: 40 mg delayed-release tablet), fasted, read-out: Vz/F, Mean): 112 L; mean AUC, rank among forms [2]: highest; mean Cmax, rank among forms [2]: highest; mean apparent oral clearance, rank among forms [2]: lowest; mean apparent volume of distribution, rank among forms [2]: lowest; thermodynamic stability among crystalline forms [5]: most thermodynamically stable
